Results on one molecule are retold here after patent publication US11396497B2, “Proteasome inhibitors” (New Mexico Tech University Research Park Corporation, priority 2018, dated 2022).

Usually IC50 stands for the concentration needed to halve the response being measured.

Where two headings read alike, the source gives them in different places.

The target in experiment [1] is T1, chymotrypsin-like activity of the 26S proteasome (Homo sapiens, UniProt P28074).
T1 construct: endogenous in cells; host or cells: Jurkat (ATCC TIB-152, E6-1 clone) cell lysate
T1 sequence (P28074 60-263): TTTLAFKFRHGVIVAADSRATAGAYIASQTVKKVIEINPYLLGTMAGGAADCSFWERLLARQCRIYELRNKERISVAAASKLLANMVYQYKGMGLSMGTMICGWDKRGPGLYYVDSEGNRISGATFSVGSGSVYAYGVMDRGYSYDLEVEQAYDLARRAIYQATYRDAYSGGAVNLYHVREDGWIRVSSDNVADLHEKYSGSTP
Put plainly: Proteasome assay, chymotrypsin-like (ChT-L) activity, Suc-LLVY-AMC, Jurkat cell lysate. Format: biochemical. The procedure: The lysate was stored at −80° C. until the sample was used for the proteasome assay.
(§1) The compounds were diluted with lysis buffer; 10 μL of the compound-containing solution was added to the test wells at ten times the final concentration. […] The results are reported as the average of at least 3 technical replicates of IC50 values for proteasome inhibition.

The next experiment deals with Jurkat cells. The experiment in a line: Apoptosis assay (Annexin V-FITC, flow cytometry). The class given is cell-based, human. The procedure: Apoptosis assay: 1 mL of Jurkat cells, at a density of 500,000 cells per milliliter, was added to 12 wells of a 24 well microtiter plate. Cells were treated immediately using a serial dilution of the synthesized proteasome inhibitors, the benzyl ester of Cystargolide B and the belactosin-cystargolide hybrid molecule. 10 μM Paclitaxel and 0.2 μg/mL Doxorubicin hydrochloride were used as positive apoptosis controls and non-treated cells were used as a negative control. The cells were then incubated for 24 h at 37° C. and 5% CO2. The following day, Annexin V-FITC conjugate was used to assay for the expression of phosphatidyl serine on the […] of the cellular membrane. The cells were briefly pelleted, aspirated, and resuspended in 300 μL of a reaction mixture containing 0.2 μL/mL of the Annexin V FITC solution, 2 mM CaCl2 to enable binding, and 2 μg/mL propidium iodide as an indicator of cell permeability. Each sample was incubated at 37° C. for 20 minutes, and then analyzed by flow cytometry. Single, whole cells were selected based on the forward and the side-scatter. With an excitation of 488 nm Annexin V-FITC binding was identified using FL1 533 nm emission. Propidium iodide staining was selected based on FL2 585 nm emission. […] Measurements were taken in biological triplicate for each sample, and the results were confirmed in technical triplicate.

In experiment [2] the target is T2, yeast proteasome yβ2 subunit (Saccharomyces cerevisiae, UniProt P25043+P25451).
T2 construct: measured using 8 μg/mL of purified yCP or iCP
The experiment in a line: Subunit selectivity, purified yeast proteasome yβ2. The class given is biochemical. Here is the method:
as §1
Values and standard deviations were calculated from an assay performed in biological triplicate.

In the case of `CC[C@H](C)[C@@H]1C(=O)O[C@H]1C(=O)N[C@H](C(=O)N[C@H](C(=O)OCc1ccccc1)C(C)C)C(C)C` [Compound 8, Benzyl ((2R,3S)-3-((S)-sec-butyl)-4-oxooxetane-2-carbonyl)-L-valyl-L-valinate], the half-inhibitory concentration (IC50) in experiment [1] was determined as 7.1 ± 2.8 nM; in experiment [1] (Table 5, ± S.D., read-out: Proteasome Inhib. ChT-L IC50) it was 7 ± 0.311 nM; in experiment [2], 26100 ± 2380 nM. In addition, the induction of apoptosis result with Jurkat cells was “induction of apoptosis”.
